From patent US12396458B2, “Fused ring substituted aromatic compound and preparation method therefor, herbicidal composition, and use thereof” (Qingdao Kingagroot Chemical Compound Co., Ltd., priority 2020, dated 2025)

Legend:
Assay in all cases: Weeding effect in post-emergence stage (greenhouse pot test)
Assay type in all cases: in vivo
Alopecurus japonicus = conditions: 3 weeks after application, fresh weight control rate
Excerpt: (§1) The activity level criteria for plant damage (i.e., growth control rate) are as follows:
(§2) Level 5: growth control rate is above 85%; • Level 4: growth control rate is greater than or equal to 60% and less than 85%; • Level 3: growth control rate is greater than or equal to 40% and less than 60%; • Level 2: growth control rate is greater than or equal to 20% and less than 40%; • Level 1: growth control rate is greater than or equal to 5% and less than 20%; • Level 0: growth control rate is less than 5%.
(§3) The above growth control rates are fresh weight control rates.
(§4) Experiment on weeding effect in post-emergence stage:
(§5) Monocotyledonous and dicotyledonous weed seeds (Descurainia sophia, Capsella bursa-pastoris, Abutilon theophrasti, Galium aparine, Stellaria media, Lithospermum arvense, Rorippa indica, Alopecurus aequalis, Alopecurus japonicus, Eleusine indica, Beckmannia syzigachne, Sclerochloa dura, Phleum paniculatum, Veronica didyma Tenore, Bromus japonicus, Aegilops tauschii, Phalaris arundinacea, Amaranthus retrojlexus, Chenopodiaceae, Commelina communis, Sonchus arvensis, convolvulus arvensis, Cirsium setosum, Solanum nigrum, Acalypha australis, Digitaria sanguinalis, Echinochloa crusgalli, Setaria viridis, Setaria glauca, Leptochloa chinensis, Monochoria vaginalis, Sagittaria trifolia, Scirpus juncoides, Cyperus rotundus, Cyperus iria, Cyperus difformis, Fimbristylis, Portulaca oleracea, Xanthium sibiricum, Pharbitis nil, Conyza japonica, etc.) and major crop seeds (wheat, corn, rice, soybean, cotton, oilseed rape, millet, sorghum, potato, sesame, ricinus, etc.) were placed in plastic pots filled with soil, then covered with 0.5-2 cm of soil, allowed to grow in a good greenhouse environment. After 2 weeks of sowing, the test plants were treated in the 2-3 leaf stage. The tested compounds of the present invention were respectively dissolved in acetone, then added with Tween 80 and 1.5 liter/ha of emulsifiable concentrate of methyl oleate as synergist, diluted with a certain amount of water to obtain a solution with a certain concentration, and sprayed with a spray tower onto the plants. After the application, the plants were cultured for 3 weeks in the greenhouse, and then the experimental results of the weeding were counted. The doses of the used compounds were 500, 250, 125, 60, 15, 7.5 g a.i./ha, and the averages were obtained by repeating for three times.

Beckmannia syzigachne = conditions: 3 weeks after application, fresh weight control rate
Excerpt: as §1, §2, §3, §4, §5

Capsella bursa-pastoris = conditions: 3 weeks after application, fresh weight control rate
Excerpt: as §1, §2, §3, §4, §5

Conyza japonica = conditions: post-emergence, 3 weeks after application, fresh weight control rate
Excerpt: as §1, §2, §3, §4, §5

Row | SMILES | Activity level (growth control rate), Alopecurus japonicus (Alopecurus japonicus; dose 15 g a.i./ha) | Activity level (growth control rate), Beckmannia syzigachne (Beckmannia syzigachne; dose 15 g a.i./ha) | Activity level (growth control rate), Capsella bursa-pastoris (Capsella bursa-pastoris; dose 15 g a.i./ha) | Activity level (growth control rate), Conyza japonica (Conyza japonica; dose 15 g a.i./ha) | Activity level (growth control rate), Alopecurus japonicus (Alopecurus japonicus; dose 125 g a.i./ha) | Activity level (growth control rate), Beckmannia syzigachne (Beckmannia syzigachne; dose 125 g a.i./ha) | Activity level (growth control rate), Capsella bursa-pastoris (Capsella bursa-pastoris; dose 125 g a.i./ha) | Activity level (growth control rate), Conyza japonica (Conyza japonica; dose 125 g a.i./ha)
1 | COCCOC(=O)C12CCCC1C(c1cc(-n3c(=O)cc(C(F)(F)F)n(C)c3=O)c(F)cc1Cl)=NO2 (stereo not drawn) [Compound 245] | 5 (Level 5: growth control rate is above 85%) | 5 (Level 5: growth control rate is above 85%) | 5 (Level 5: growth control rate is above 85%) | 4 (Level 4: growth control rate is greater than or equal to 60% and less than 85%) |  |  |  | 
2 | COC(=O)C12CCCC1C(c1cc(-n3c(=O)n(C)c(=S)n(C)c3=O)c(F)cc1Cl)=NO2 (stereo not drawn) [Compound 2] | 5 (Level 5: growth control rate is above 85%) | 5 (Level 5: growth control rate is above 85%) | 5 (Level 5: growth control rate is above 85%) | 5 (Level 5: growth control rate is above 85%) |  |  |  | 
3 | C#CCOC(=O)C12CCCC1C(c1cc(-n3c(=O)n(C)c(=S)n(C)c3=O)c(F)cc1Cl)=NO2 (stereo not drawn) [Compound 13] | 5 (Level 5: growth control rate is above 85%) | 5 (Level 5: growth control rate is above 85%) | 5 (Level 5: growth control rate is above 85%) | 4 (Level 4: growth control rate is greater than or equal to 60% and less than 85%) |  |  |  | 
4 | COC(=O)C12CCC(C)C1C(c1cc(-n3c(=O)cc(C(F)(F)F)n(C)c3=O)c(F)cc1Cl)=NO2 (stereo not drawn) [Compound 443] | 5 (Level 5: growth control rate is above 85%) | 5 (Level 5: growth control rate is above 85%) | 5 (Level 5: growth control rate is above 85%) | 4 (Level 4: growth control rate is greater than or equal to 60% and less than 85%) |  |  |  | 
5 | CCCOC(=O)C12CCCC1C(c1cc(-n3c(=O)n(C)c(=S)n(C)c3=O)c(F)cc1Cl)=NO2 (stereo not drawn) [Compound 4] | 5 (Level 5: growth control rate is above 85%) | 5 (Level 5: growth control rate is above 85%) | 5 (Level 5: growth control rate is above 85%) | 4 (Level 4: growth control rate is greater than or equal to 60% and less than 85%) |  |  |  | 
6 | CCOC(=O)C12CCC(=NOC)C1C(c1cc(-n3c(=O)cc(C(F)(F)F)n(C)c3=O)c(F)cc1Cl)=NO2 (stereo not drawn) [Compound 451] | 4 (Level 4: growth control rate is greater than or equal to 60% and less than 85%) | 4 (Level 4: growth control rate is greater than or equal to 60% and less than 85%) | 5 (Level 5: growth control rate is above 85%) | 4 (Level 4: growth control rate is greater than or equal to 60% and less than 85%) |  |  |  | 
7 | COC(=O)C12CCCC1C(c1cc(-n3c(=O)cc(C(F)(F)F)n(C)c3=O)c(F)cc1Br)=NO2 (stereo not drawn) [Compound 210] | 5 (Level 5: growth control rate is above 85%) | 5 (Level 5: growth control rate is above 85%) | 5 (Level 5: growth control rate is above 85%) | 5 (Level 5: growth control rate is above 85%) |  |  |  | 
8 | Cn1c(C(F)(F)F)cc(=O)n(-c2cc(C3=NOC4(C(=O)OCC5CCCO5)CCCC34)c(Cl)cc2F)c1=O (stereo not drawn) [Compound 261] | 5 (Level 5: growth control rate is above 85%) | 5 (Level 5: growth control rate is above 85%) | 5 (Level 5: growth control rate is above 85%) | 4 (Level 4: growth control rate is greater than or equal to 60% and less than 85%) |  |  |  | 
9 | C=CCOC(=O)C12CCCC1C(c1cc(-n3c(=O)cc(C(F)(F)F)n(C)c3=O)c(F)cc1Cl)=NO2 (stereo not drawn) [Compound 222] | 5 (Level 5: growth control rate is above 85%) | 5 (Level 5: growth control rate is above 85%) | 5 (Level 5: growth control rate is above 85%) | 4 (Level 4: growth control rate is greater than or equal to 60% and less than 85%) |  |  |  | 
10 | COC(=O)C12CCC(F)C1C(c1cc(-n3c(=O)cc(C(F)(F)F)n(C)c3=O)c(F)cc1Cl)=NO2 (stereo not drawn) [Compound 441] | 4 (Level 4: growth control rate is greater than or equal to 60% and less than 85%) | 4 (Level 4: growth control rate is greater than or equal to 60% and less than 85%) | 5 (Level 5: growth control rate is above 85%) | 4 (Level 4: growth control rate is greater than or equal to 60% and less than 85%) |  |  |  | 
11 | CCCOC(=O)C12CCCC1C(c1cc(-n3c(=O)cc(C(F)(F)F)n(C)c3=O)c(F)cc1Cl)=NO2 (stereo not drawn) [Compound 216] | 5 (Level 5: growth control rate is above 85%) | 5 (Level 5: growth control rate is above 85%) | 5 (Level 5: growth control rate is above 85%) | 4 (Level 4: growth control rate is greater than or equal to 60% and less than 85%) |  |  |  | 
12 | Cn1c(C(F)(F)F)cc(=O)n(-c2cc(C3=NOC4(C(=O)N5CCCC5)CCCC34)c(Cl)cc2F)c1=O (stereo not drawn) [Compound 427] | 5 (Level 5: growth control rate is above 85%) | 4 (Level 4: growth control rate is greater than or equal to 60% and less than 85%) | 5 (Level 5: growth control rate is above 85%) | 4 (Level 4: growth control rate is greater than or equal to 60% and less than 85%) |  |  |  | 
13 | Cn1c(C(F)(F)F)cc(=O)n(-c2cc(C3=NOC4(C(=O)OCCCl)CCCC34)c(Cl)cc2F)c1=O (stereo not drawn) [Compound 424] | 5 (Level 5: growth control rate is above 85%) | 5 (Level 5: growth control rate is above 85%) | 5 (Level 5: growth control rate is above 85%) | 5 (Level 5: growth control rate is above 85%) |  |  |  | 
14 | CCOC(=O)C12ON=C(c3cc(-n4c(=O)cc(C(F)(F)F)n(C)c4=O)c(F)cc3Cl)C1CCC2C (stereo not drawn) [Compound 476] | 5 (Level 5: growth control rate is above 85%) | 5 (Level 5: growth control rate is above 85%) | 5 (Level 5: growth control rate is above 85%) | 4 (Level 4: growth control rate is greater than or equal to 60% and less than 85%) |  |  |  | 
15 | COC(=O)C12CCOC1C(c1cc(-n3c(=O)cc(C(F)(F)F)n(C)c3=O)c(F)cc1Cl)=NO2 (stereo not drawn) [Compound 372] |  |  |  |  | 4 (Level 4: growth control rate is greater than or equal to 60% and less than 85%) | 4 (Level 4: growth control rate is greater than or equal to 60% and less than 85%) | 5 (Level 5: growth control rate is above 85%) | 4 (Level 4: growth control rate is greater than or equal to 60% and less than 85%)
